Measurements taken from patent publication US20250205188A1, “TREATMENT OR PREVENTION OF RESPIRATORY DISEASES CHARACTERISED BY, OR INVOLVING, LUNG FIBROSIS” (IMPERIAL COLLEGE INNOVATIONS LIMITED, priority 2022, published 2025).

Legend:
[1] = system: Human lung fibroblast cells; test: RT-PCR gene expression in TGFβ fibrosis model of human lung fibroblast cells; assay type: cell-based; conditions: 10 mM for 1 hour, then 2 ng/mL TGFβ 24 hours, relative to untreated cells; for gene expression of Col1α1: FIG. 2A; for gene expression of FN1: FIG. 2B; for gene expression of CTGF: FIG. 2C
Source text: Primary human lung fibroblasts were isolated from lung resections of patients undergoing lung cancer surgery or lung transplantation performed after informed consent as approved by an external Research Ethics Committee (REC 15/SC0101) according to Royal Brompton Hospital protocol (Royal Brompton & Harefield NHS Foundation Trust, 2016). Fibroblasts from healthy individuals were also purchased from Lonza (Lonza, Basel, Switzerland).
Real Time PCR After treatment, the supernatant liquid was removed from cell cultures and RLT buffer containing 1% beta-mercaptoethanol was added to each well and then was frozen for later analysis. RNA extraction of cells was performed using the RNeasy Plus Mini Kit (QIAGEN), according to the manufacturer's protocol. Samples were defrosted at room temperature and centrifuged. The homogenate was transferred onto RNeasy MinElute spin columns and purified. RNA was reverse-transcribed into cDNA using the High-Capacity cDNA Reverse Transcription Kit (ThermoFisher) according to the manufacturer's instructions. Real-time PCR was performed using fast-qPCR mastermix (QIAGEN) on a Viia-7 instrument (Applied Biosciences) with Taqman primers for human genes, namely acod1, cd163, fn1, IL-1β, mmp1, mmp9 using actb (Life Technologies) as housekeeping gene.
Fibroblasts are the principal effector cell during lung fibrosis and the main source of the excessive extracellular matrix deposition seen during the disease. To explore the anti-fibrotic properties of itaconate analogues in human fibroblast cells, qPCR experiments were undertaken. Human lung fibroblast cells were seeded (10,000 cells/well) in a 48-well plate and were incubated with ICL-PO, ICL-2, ICL-3, ICL-4, ICL-6, itaconate, dimethyl itaconate, sodium itaconate and dimethyl malonate for 1 hour, after which the supernatant liquid was removed. The healthy fibroblasts were then incubated with 2 ng/mL transforming growth factor beta (TGFβ) for 24 hours in order to mimic pulmonary fibrosis. TGFβ is activated in fibrotic diseases and plays a key role in mediating fibrotic tissue. After treatment, RNA extraction of the cells was performed and 10 μg RNA per sample was reverse transcribed into cDNA. RT-PCR was performed with TaqMan primers for Col1α1, connective tissue growth factor (CTGF) and fibronectin (FN1) human genes. The results are shown in FIG. 2—(A) Gene expression of COL1A1 relative to two housekeeping genes (bactin and Beta-2-Microglobulin-averaged to make a ‘pooled’ control); (B) Gene expression of FN1 relative to housekeeping gene; and (C) Gene expression of CTGF relative to housekeeping gene.

[2] = system: Healthy primary human lung fibroblasts; test: Seahorse glycolytic stress test (ECAR); assay type: cell-based; conditions: 0.1 mM, 1 mM and 10 mM for 1 hour, then with or without 2 ng/ml TGF-β1 24 hours; FIGS. 4 and 5
Procedure: Healthy primary human lung fibroblasts (10,000 per well) were seeded in a seahorse plate pre-coated with Cell Tak (BD Biosciences, Oxford, UK). After an overnight incubation, fibroblasts were treated with different itaconate analogues for 1 hour and they were subsequently incubated with or without 2 ng/ml TGF-β1 for 24 hours. XF medium (nonbuffered RPMI containing 2 mM glutamine, 1 mM pyruvate and 10 mM glucose, pH 7.4, Agilent, Santa Clara, USA) was used to measure Oxygen Consumption Rate (OCR) and Extracellular Acidification Rate (ECAR) with the XFp extracellular flux analyser. The Seahorse glycolytic Stress Test (Agilent, Santa Clara, USA) was utilized to measure OCR and ECAR at baseline. Healthy primary human lung fibroblasts (10,000 per well) were seeded in a seahorse plate pre-coated with Cell Tak (BD Biosciences, Oxford, UK). After an overnight incubation, fibroblasts were treated with different concentrations (0.1 mM, 1 mM and 10 mM) of the itaconate analogues, citraconate or mesaconate, for 1 hour and they were subsequently incubated with or without 2 ng/ml TGF-β1 for 24 hours. XF medium (nonbuffered RPMI containing 2 mM glutamine, 1 mM pyruvate and 10 mM glucose, pH 7.4, Agilent, Santa Clara, USA) was used to measure an Extracellular Acidification Rate (ECAR) with the XFp extracellular flux analyser for the citraconate assay (FIG. 4) or mesaconate assay (FIG. 5). […]

[3] = system: human lung fibroblasts; conditions: exogenous itaconate added to cultures; cited from earlier work
[4] = system: lung fibrosis in mice; conditions: inhaled (particularly oropharyngeal inhalation); cited from earlier work

SMILES	gene expression of Col1α1 [1]	gene expression of FN1 [1]	gene expression of CTGF [1]	Extracellular Acidification Rate (ECAR) [2]	proliferation of human lung fibroblasts [3]	wound healing of human lung fibroblasts [3]	lung fibrosis [4]
C=C(CC(=O)O)C(=O)OC [ICL-6, 3-(methoxycarbonyl)but-3-enoic acid]	decreased gene expression	decreased gene expression	decreased gene expression	–	–	–	–
C=C(CC(=O)OC(C)(C)C)C(=O)OC(C)(C)C [ICL-4, Bis(2-methyl-2-propanyl)-2-methylenesuccinate]	decreased gene expression	decreased gene expression	decreased gene expression	–	–	–	–
C/C(=C\C(=O)O)C(=O)O [mesaconate]	–	–	–	concentration dependent reduction in ECAR	–	–	–
C/C(=C/C(=O)O)C(=O)O [citraconate]	–	–	–	concentration dependent reduction in ECAR	–	–	–
C=C(CC(=O)N(C)C)C(=O)O [ICL-PO, 3-(dimethylcarbamoyl)-2-methvlidenepropanoic acid]	decreased gene expression	decreased gene expression	decreased gene expression	–	–	–	–
C=C(CC(=O)OC)C(=O)OC [dimethyl itaconate]	decreased gene expression	decreased gene expression	decreased gene expression	–	–	–	–
C=C(CC(=O)O)C(=O)O [itaconate, 2-methylidenebutanedioic acid, reference compound]	decreased gene expression	decreased gene expression	decreased gene expression	–	limits	limits	ameliorates lung fibrosis
C/C=C(\CC(=O)O)C(=O)O [ICL-3, (2E)-2-ethylidenebutanedioic acid]	decreased gene expression	decreased gene expression	decreased gene expression	–	–	–	–
C=C(CC(=O)[O-])C(=O)[O-].[Na+].[Na+] [sodium itaconate, reference compound]	decreased gene expression	decreased gene expression	decreased gene expression	–	–	–	–
COC(=O)CC(=O)OC [dimethyl malonate, reference compound]	decreased gene expression	decreased gene expression	decreased gene expression	–	–	–	–
C=C(CC(=O)O)C(=O)N(C)C [ICL-2, Sodium 3-(dimethylcarbamovl)-3-methvlidenepropanoate]	decreased gene expression	decreased gene expression	decreased gene expression	–	–	–	–
